Experimental data reported in US8481522B2, “Platinum-N-heterocyclic carbene derivatives, preparation thereof and therapeutic use thereof” (Sanofi, priority 2008, dated 2013).
Where “and” joins values, the source holds several entries; their conditions need not be identical. Equal values may be shown once.

Tests used:
CCRF-CEM cells = experiment: Cytotoxicity, non-adherent CCRF-CEM cells, CellTiter-Glo luminescent cell viability; format: cell-based; settings: CCRF-CEM human T leukaemia, 96 h incubation
Protocol: CCRF-CEM is a human T leukaemia (Cancer 1965, 18: 522-529). Oxaliplatin induces bifunctional lesions such as inter- and intra-DNA strand adducts on these CCRF-CEM cells (Mol Pharmacol 2000, 58: 920-927). […] This deficiency makes these cells particularly […] to alkylating agents and to platinum compounds.
For the non-adherent CCRF-CEM cells, the cell viability is measured by the luminescence test CellTiter-Glo® Luminescent Cell Viability Assay (Promega, Madison, Wis., USA). When it is added to the cells, the reagent produces a luminescence in the presence of the ATP of the living cells. The results are evaluated on a suitable reader (Envision, Perkin-Elmer Life Sciences, Boston, Mass., USA).
The CCRF-CEM cells are cultured in RPMI1640 medium containing 10% foetal calf serum, 2 mM L-glutamine, 100 units/ml of penicillin and […] of streptomycin, at 37° C. in a 95% air/5% CO2 atmosphere. The cells, at the exponential growth phase, are introduced into the wells of a 96-well plate at the density of 5×10^3 cells per well in an opaque plate (Greiner), in a volume of 150 μl. After incubating for 4 h at 37° C. in a 95% air/5% CO2 atmosphere, the compounds (concentrated 20-fold) are added in a volume of 8 μl. The compounds are prepared beforehand as a stock solution at the concentration of 10 mM in DMSO. A serial dilution is performed before the compounds are brought into contact with the cells. After incubating for 96 h at 37° C., 100 μl of agents (CellTiter-Glo) are added. After lysing the cells, the release of ATP is evaluated on the Envision reader.
(§1) The IC50 values are evaluated from curves presenting the percentage viability as a function of the concentration of the test compound, using the Biostat speed software. The IC50 is defined as the concentration of the compound which inhibits 50% of the cell proliferation or 50% of the cell viability.

H460 = experiment: Cytotoxicity, adherent cells, 14C-thymidine incorporation (cell proliferation); format: cell-based; settings: NCI-H460 human non-small cell lung cancer, 96 h treatment
Protocol: NCI-H460 is a human non-small cell lung cancer which has a mutation in the K-ras gene. This cell is sensitive to platinum compounds. In this cell line, cisplatin forms more adducts than oxaliplatin at the same concentration and yet the percentage repair is higher for oxaliplatin (DNA Repair 2006, 5: 219-225).
Cell proliferation is evaluated by the incorporation of ^14C-thymidine into the DNA of the cells. A549, CH1, CH1/DDP and H460 are cultured in Dulbecco's modified Eagle's medium (DMEM), SK-OV-3 in Mc-Coy medium, A2780 and A2780/DDP in RPMI1640 medium. All the media contain 10% foetal calf serum, 2 mM L-glutamine, 100 units/ml of penicillin and […] of streptomycin. The incubation is performed at 37° C. in a 95% air/5% CO2 atmosphere.
The cells, at the exponential growth phase, are introduced into the wells of a Cytostar 96-well plate, containing a scintillation fluid (Cytostar-T scintillating microplate, GE Healthcare Bio-Sciences AB, Uppsala, Sweden), at the density of 5×10^3 to 10^4 cells per well, in an amount of 180 μl per well. After incubating for 4 hours, the test compounds are added. The compounds are prepared beforehand as a stock solution at the concentration of 10 mM in DMSO. A serial dilution is performed before the compounds are brought into contact with the cells in a volume of 10 μl. After incubating for 72 hours at 37° C. in an atmosphere of 95% air/5% CO2, 0.1 μCi/well of ^14C-thymidine is added. 24 h later (total 96 h of treatment), the incorporation of ^14C-thymidine is recorded on a suitable scintillation counter (MicroBeta radioactivity counting, Perkin-Elmer Life Sciences, Boston, Mass., USA). The mean values obtained in the experimental groups are divided by the mean values obtained in the control groups in order to obtain percentages relative to the controls.
as §1

Compound: Cn1cc[n+](Cc2ccc(C(F)(F)F)cc2)[c]1[Pt-2]([I])([I])[NH2+]C1CCOCC1 [Example 37, trans-diiodo(N-tetrahydropyran-4-ylamine)(1-methyl-3-(4-trifluoro-methylbenzyl)imidazol-2-ylidene)platinum(II)]
- IC50 (CCRF-CEM cells): 0.9 µM
- IC50 (H460): 1.4 µM

Compound: trans-diiodo(N-cyclohexylamine)[3-benzyl-1-methyl-4-phenylimidazol-2-ylidene]platinum(II) [Example 21]
- IC50 (CCRF-CEM cells): 0.9 µM
- IC50 (H460): 1.9 µM

Compound: Cn1ccn(Cc2ccccc2)[c]1=[Pt-]([I])([I])[NH2+]C1CCCC1 [Example 30, trans-diiodo(N-cyclopentylamine)(1-methyl-3-benzylimidazol-2-ylidene)platinum(II)]
- IC50 (CCRF-CEM cells): 1.1 µM
- IC50 (H460): 1.3 µM

Compound: Cn1ccn(Cc2ccccc2)[c]1=[Pt-]([I])([I])[NH2+]C1CCOCC1 [Example 29, trans-diiodo(N-4-aminotetrahydropyran)(1-methyl-3-benzylimidazol-2-ylidene)platinum(II)]
- IC50 (CCRF-CEM cells): 0.5 µM
- IC50 (H460): 0.9 µM

Compound: Cn1ccn(Cc2ccc(C(F)(F)F)cc2)[c]1=[Pt-]([Br])([Br])[NH2+]C1CCCCC1 [Example 38, trans-dibromo(N-cyclohexylamine)[1-methyl-3-(4-trifluoromethyl-benzyl)imidazol-2-ylidene]platinum(II)]
- IC50 (CCRF-CEM cells): 2.2 µM
- IC50 (H460): 3 µM

Compound: trans-diiodo(N-cyclohexylamine)(1-methyl-3-phenyl-1,2,4-triazol-5-ylidene)platinum(II) [Example 19]
- IC50 (CCRF-CEM cells): 1 µM
- IC50 (H460): 2.3 µM

Compound: CCC(CC)[NH2+][Pt-]([I])([I])=[c]1n(C)ccn1Cc1ccccc1 [Example 28, trans-diiodo(N-pentan-3-ylamine)(1-methyl-3-benzylimidazol-2-ylidene)platinum(II)]
- IC50 (CCRF-CEM cells): 1.4 µM
- IC50 (H460): 1.6 µM

Compound: COc1cccc(Cn2cc[n+](C)[c]2[Pt-2]([I])([I])[NH2+]C2CCCCC2)c1 [Example 32, trans-diiodo(N-cyclohexylamine)[3-(3-methoxybenzyl)-1-methyl-imidazol-2-ylidene]platinum(II)]
- IC50 (CCRF-CEM cells): 1.2 µM
- IC50 (H460): 1.4 µM

Compound: Cn1ccn(-c2ccccc2)[c]1=[Pt-]([I])([I])[NH2+]C1CCCCC1 [Example 4, trans-diiodo(N-cyclohexylamine)(1-methyl-3-phenylimidazol-2-ylidene)platinum(II)]
- IC50 (CCRF-CEM cells): 1.5 µM
- IC50 (H460): 2.3 µM

Compound: Cn1ccn(C)[c]1=[Pt-]([I])([I])[NH2+]C1CC2CCC1C2 (single isomer, unassigned) [Example 24, trans-diiodo(N-exo(−)bicyclo[2.2.1]heptylamine)(1,3-dimethylimidazol-2-ylidene)platinum(II)]
- IC50 (CCRF-CEM cells): 0.9 µM
- IC50 (H460): 2.1 µM

Compound: Cn1ccn(C)[c]1=[Pt-]([I])([I])[NH2+]Cc1ccccc1 [Example 13, trans-diiodo(N-benzylamine)(1,3-dimethylimidazol-2-ylidene)-platinum(II)]
- IC50 (CCRF-CEM cells): 1.7 µM
- IC50 (H460): 3 µM

Compound: C[n+]1c(-c2ccccc2)c(-c2ccccc2)n(Cc2ccccc2)[c]1[Pt-2]([I])([I])[NH2+]C1CCCCC1 [Example 26, trans-diiodo(N-cyclohexylamine)[3-benzyl-4,5-diphenyl-1-methyl-imidazol-2-ylidene]platinum (II)]
- IC50 (CCRF-CEM cells): 1.2 µM
- IC50 (H460): 2.9 µM

Compound: Cn1ccn(C)[c]1=[Pt-]([I])([I])[NH2+]C1CC2CCC1C2 (single isomer, unassigned) [Example 23, trans-diiodo(N-exo(+)bicyclo[2.2.1]heptylamine)(1,3-dimethylimidazol-2-ylidene)platinum(II)]
- IC50 (CCRF-CEM cells): 1.6 µM
- IC50 (H460): 2.3 µM

Compound: CN1CCC([NH2+][Pt-]([I])([I])=[c]2n(C)ccn2Cc2ccccc2)CC1 [Example 27, trans-diiodo[N-(1-methylpiperidin-4-ylamine)](1-methyl-3-benzyl-imidazol-2-ylidene)platinum(II)]
- IC50 (CCRF-CEM cells): 1.6 µM
- IC50 (H460): 1.7 µM

Compound: Cn1ccn(C)[c]1=[Pt-]([I])([I])[NH2+]C1CCCCC1 [Example 1, trans-diiodo(N-cyclohexylamine)(1,3-dimethylimidazol-2-ylidene)platinum(II)]
- IC50 (CCRF-CEM cells): 2.8 µM and 1.9 µM
- IC50 (H460): 5.4 µM and 3 µM

Compound: [I][Pt-]([I])([NH2+]C1CCCCC1)=[c]1n(C2CCCCC2)ccn1C1CCCCC1 [Example 18, trans-diiodo(N-cyclohexylamine)(1,3-dicyclohexylimidazol-2-ylidene)platinum(II)]
- IC50 (CCRF-CEM cells): 1.4 µM
- IC50 (H460): 2.7 µM

Compound: Cn1ccn(Cc2ccc(C(F)(F)F)cc2)[c]1=[Pt-]([NH2+]C1CCCCC1)([O][N+](=O)[O-])[O][N+](=O)[O-] [Example 34, trans-dinitrato(N-cyclohexylamine)[1-methyl-3-(4-trifluoromethyl-benzyl)imidazol-2-ylidene]platinum(II)]
- IC50 (CCRF-CEM cells): 1.4 µM
- IC50 (H460): 3.1 µM

Compound: C[n+]1ccn(Cc2cccc(C(F)(F)F)c2)[c]1[Pt-2]([I])([I])[NH2+]C1CCCCC1 [Example 33, trans-diiodo(N-cyclohexylamine)[1-methyl-3-(3-trifluoromethylbenzyl)imidazol-2-ylidene]platinum(II)]
- IC50 (CCRF-CEM cells): 0.7 µM
- IC50 (H460): 0.8 µM

Compound: C=Cn1ccn(C)[c]1=[Pt-]([I])([I])[NH2+]C1CCCCC1 [Example 15, trans-diiodo(N-cyclohexylamine)[1-methyl-3-vinylimidazol-2-ylidene]platinum(II)]
- IC50 (CCRF-CEM cells): 2.1 µM
- IC50 (H460): 3.8 µM

Compound: CC(C)(C)[n+]1ccn(Cc2ccccc2)[c]1[Pt-2]([I])([I])[n+]1ccccc1 [Reference product, trans-diiodo(pyridine)(1-benzyl-3-tert-butylimidazol-2-ylidene)platinum(II), reference compound]
- IC50 (CCRF-CEM cells): 3.9 µM
- IC50 (H460): 4.4 µM

Compound: Cn1c(-c2ccccc2)c(-c2ccccc2)n(C)[c]1=[Pt]([I])([I])[NH]C1CCCCC1 [Example 22, trans-diiodo(N-cyclohexylamine)[1,3-dimethyl-4,5-diphenylimidazol-2-ylidene]platinum(II)]
- IC50 (CCRF-CEM cells): 1.2 µM
- IC50 (H460): 1.8 µM

Compound: Cn1ccn(C)[c]1=[Pt-]([I])([I])[NH2+]C1CC2CCC1C2 (racemic) [Example 6, trans-diiodo(N-exo(+/−)bicyclo[2.2.1]heptylamine)(1,3-dimethyl-imidazol-2-ylidene)platinum(II)]
- IC50 (CCRF-CEM cells): 1.7 µM
- IC50 (H460): 2.8 µM

Compound: Cn1ccn(Cc2ccc(C(F)(F)F)cc2)[c]1=[Pt-]([I])([I])[NH+]1CCOCC1 [Example 36, trans-diiodo(N-morpholine)(1-methyl-3-(4-trifluoromethylbenzyl)-imidazol-2-ylidene)platinum(II)]
- IC50 (CCRF-CEM cells): 0.6 µM
- IC50 (H460): 0.9 µM

Compound: Cn1cnn(C)[c]1=[Pt]([I])([I])[NH]C1CCCCC1 [Example 2, trans-diiodo(N-cyclohexylamine)(1,4-dimethyl-1,2,4-triazol-5-ylidene)platinum(II)]
- IC50 (CCRF-CEM cells): 1.5 µM
- IC50 (H460): 2.5 µM

Compound: COc1ccc(Cn2cc[n+](C)[c]2[Pt-2]([I])([I])[NH2+]C2CCCCC2)cc1OC [Example 35, trans-diiodo(N-cyclohexylamine)[3-(3,4-dimethoxybenzyl)-1-methylimidazol-2-ylidene]platinum(II)]
- IC50 (CCRF-CEM cells): 1.3 µM
- IC50 (H460): 2.7 µM

Compound: Cn1ccn(Cc2ccccc2)[c]1=[Pt-]([I])([I])[NH+]1CCOCC1 [Example 31, trans-diiodo(N-morpholine)(1-methyl-3-benzylimidazol-2-ylidene)-platinum(II)]
- IC50 (CCRF-CEM cells): 0.7 µM
- IC50 (H460): 0.9 µM
